Experimental data as given in US20240175019A1, “Skeletal Muscle Delivery Platforms and Methods of Use” (Arrowhead Pharmaceuticals, Inc., priority 2020, published 2024).
Oligonucleotides are written 5' to 3', each unit as a sugar letter and its base; * is a phosphorothioate linkage, no mark a phosphodiester; rarer units and linkages stand in square brackets, end groups in braces. Plain capitals give the bases only. {NH2-C6} = C6 amine reactive group for conjugation; {Alk-cyHex} = alkyne-cyclohexyl conjugation group; [invAb] = inverted abasic deoxyribose residue; [C6-SS-C6] = C6-disulfide-C6 linker; d = 2'-deoxy (DNA); m = 2'-O-methyl; f = 2'-fluoro

Test system: myostatin mRNA
Test: MSTN expression in triceps of mice by qPCR TaqMan assay (Example 7)
Assay type: in vivo
Settings: Day 22, mice, 3 mg/kg single injection on Day 1, n=4
Method: On Study Day 1, mice were injected with either isotonic saline (vehicle control) or 3 mg/kg (mpk) of RNAi agent formulated in isotonic saline according to the following dosing Groups:
The RNAi agents in Example 7 were synthesized having nucleotide sequences directed to target the MSTN gene, and groups 1 and 3 included a functionalized amine reactive group (NH2-C6) at the 5′ terminal end of the sense strand to facilitate conjugation to L4 which could then be conjugated to the small molecule targeting ligand Compound 45b. Group 2 included an (Alk-cyHex)s (see Table 28 for structure details) which was conjugated to the small molecule targeting ligand Compound 45b. The myostatin RNAi agents further included a PEG48+C22 PK/PD modulator, which was linked to the 3′ end of the sense strand.
Four (4) mice were dosed in each Group (n=4). Mice were sacrificed on study day 22, and total myostatin mRNA was isolated from the triceps. Triceps were harvested from right front limb. Each sample was snap-frozen in percellys tubes and stored in a −80° C. freezer until assays were completed. Relative MSTN expression was determined by qPCR TaqMan Assay on muscle tissue.

Substance | Average relative MSTN expression, Relative Expression
AD06916: AS: usGfsusUfaCfagcaaGfaUfcAfuGfgCfsc; SS: (NH2-C6)s(invAb)sggccaugaUfCfUfugcuguaacas(invAb)s(C6-SS-C6)dT (antisense mU*fG*mU*fUmAfCmAmGmCmAmAfGmAfUmCfAmUfGmGfC*mC; sense {NH2-C6}*[invAb]*mGmGmCmCmAmUmGmAfUfCfUmUmGmCmUmGmUmAmAmCmA*[invAb]*[C6-SS-C6]dT; siRNA; Compound 45b ligand via L4 on sense 5' amine, PEG48+C22 at sense 3') | 0.295
AD06912: AS: usGfsusUfaCfagcaaGfaUfcAfuGfgCfsc; SS: (Alk-cyHex)s(invAb)sggccaugaUfCfUfugcuguaacas(invAb)(C6-SS-C6)dT (antisense mU*fG*mU*fUmAfCmAmGmCmAmAfGmAfUmCfAmUfGmGfC*mC; sense {Alk-cyHex}*[invAb]*mGmGmCmCmAmUmGmAfUfCfUmUmGmCmUmGmUmAmAmCmA*[invAb][C6-SS-C6]dT; siRNA; Compound 45b ligand on sense 5' Alk-cyHex, PEG48+C22 at sense 3') | 0.253
AD06326: AS: usGfsusUfaCfagcaaGfaUfcAfuGfgCfsc; SS: (NH2-C6)s(invAb)sggccaugaUfCfUfugcuguaacas(invAb)(C6-SS-C6)dT (antisense mU*fG*mU*fUmAfCmAmGmCmAmAfGmAfUmCfAmUfGmGfC*mC; sense {NH2-C6}*[invAb]*mGmGmCmCmAmUmGmAfUfCfUmUmGmCmUmGmUmAmAmCmA*[invAb][C6-SS-C6]dT; siRNA; Compound 45b ligand via L4 on sense 5' amine, PEG48+C22 at sense 3') | 0.296
